Values joined by “and” are separate entries in the source; they are usually repeats but may differ in a detail not shown here. Identical values can stand only once. Like-named read-outs stand apart in the source and are kept apart here.
Tests used:
[1] = system: Phytophthora infestans; conditions: in vivo
[2] = system: Phytophthora infestans; conditions: in vivo; remark: listed apart in the source
[3] = system: Plasmopara viticola; conditions: in vivo
[4] = system: Plasmopara viticola; test: Field trial, grape downy mildew fruit rot, Michigan, U.S.A. (natural infection); assay type: in vivo; conditions: 12 days after last treatment, 100 g/ha of each compound, grapes; for % Control, Incidence (Observed): downy mildew fruit rot incidence; for % Control, Severity (Observed): downy mildew fruit rot severity (diseased fruit surface area)
Description: (§1) The results provided by the mixtures were compared with the predicted results that were calculated using the formula set forth by S.R. Colby in Weeds 1967, 15, 20-22 ("Colby's Formula") from the results obtained using each of the compounds individually. The predicted results are also provided in the following Examples.
The trial was conducted in the State of Michigan, U.S.A. Plots consisted of 4 grape vines, cultivar Chancellor. Four such plots arranged in randomized blocks were used for each treatment
Fungicide treatments were applied at day 0, and at 13, 28, 43, 55, 71, and 84 days thereafter. N-[3(1'-chloro-3'-methyl-2'-oxopentan]-3,5-dichloro-4-methylbenzamide was applied as a flowable formulation (23% active ingredient) at 100 grams of active ingredient per hectare, and 2-cyano-N-((ethylamino)carbonyl)-2-(methoxyimino)acetamide was applied as a wettable powder formulation (CURZATE™, 50WP, DuPont, Wilmington, DE) at 100 grams of active ingredient per hectare. The two compounds were also applied as an aqueous tank mix of the two compounds at a dosage of 100 grams of active ingredient per hectare of each compound.
Evaluation of disease in response to natural infection was made 12 days after the last treatment The incidence and severity of downy mildew fruit rot was determined for twenty clusters of fruit selected randomly from the middle two vines of each plot Incidence refers to whether or not the cluster was diseased, and severity is the percentage of diseased fruit surface area. The compounds applied (Compound), and the incidence and severity results, expressed as percent disease control in comparison with untreated plots (% Control, Incidence (Observed) and % Control, Severity (Observed), respectively) are set forth below in TABLE 4 for treatment with N-[3'(1'-chloro-3'-methyl-2'-oxopentan]-3,5-dichloro-4-methylbenzamide, treatment with 2-cyano-N-((ethylamino)carbonyl)-2-(methoxyimino)acetamide and treatment with a mixture of the two compounds. The results obtained using the mixture of the two compounds were compared with predicted results that were calculated using Colby's formula from the results obtained using each of the compounds individually. The predicted results for incidence and severity are set forth below in TABLE 4 as "% Control, Incidence (Predicted)" and "% Control, Severity (Predicted)", respectively.

[5] = system: Phytophthora infestans; assay type: in vivo; conditions: 6 days after inoculation, tomatoes
[6] = system: Plasmopara viticola; test: Field trial, grape vines, Campinas, Brazil (heavy natural infection); assay type: in vivo; conditions: grapes
Description: as §1
A field trial was conducted in Campinas, Brazil. Plots each consisted of 4 grape vines, cultivar Maria.
Fungicide treatments were applied at 7-day intervals with a total of 5 applications. N-[3'(1'-chloro-3'-methyl-2'-oxopentan]-3,5-dichloro-4-methylbenzamide was applied as a flowable formulation (23% active ingredient) , 2-cyano-N-((ethylamino)carbonyl)-2-(methoxyimino)acetamide as a wettable powder formulation (CURZATE™, 50WP, DuPont, Wilmington, DE). The two compounds were each applied individually in the manner disclosed above and in combination as an aqueous tank mix of the two compounds.
Evaluation of disease in response to a heavy natural infection was made 6 days after the third application, and 7 days after the fifth application. The Compounds applied and dosage rates, expressed as grams of active ingredient per hectare (Compound Dosage Rate (g/ha)) and the results, expressed as percent disease control in comparison with untreated plots (% Control(Observed)) are set forth below in TABLE 6 for treatment with N-[3'(1'-chloro-3'-methyl-2'-oxopentan]-3,5-dichloro4-methylbenzamide, treatment with 2-cyano-N-((ethylamino)carbonyl)-2-(methoxyimino)acetamide and treatment with mixtures of the two compounds. The results obtained using the mixtures of the two compounds were compared with those predicted by Colby's formula from the results provided by each of the two compounds used individually. The predicted results are set forth below in TABLE 6 as "% Control (Predicted)".

| Compound | % Control by Evaluation Interval 5 weeks [1] | % Control by Evaluation Interval 6 weeks [1] | % Control by Evaluation Interval 7 weeks [1] | % Control (Observed) [2] [%] | % Control (Observed) [3] [%] | % Control, Incidence (Observed) [4] [%] | % Control, Severity (Observed) [4] [%] | % Control (Observed) ([5]; single compound 0.4 ppm) [%] | % Control (Observed) ([5]; single compound 0.8 ppm) [%] | other results |
| --- | --- | --- | --- | --- | --- | --- | --- | --- | --- | --- |
| CCC(C)(NC(=O)c1cc(Cl)c(C)c(Cl)c1)C(=O)CCl (stereo not drawn) [Compound A] | 99% and 98% | 97% and 81% | 88% and 56% | 23 | 87 | 43.7 | 75.3 | 0 | 20 | % Control by Evaluation Interval 9 weeks [1]: 16% and 11%; % Control by Evaluation Interval 10 weeks [1]: 11% and 6%; % Control by Evaluation Interval 11 weeks [1]: 1% and 0%; % Control (Observed) ([6]; Seven days after the fifth treatment, A 100 g/ha alone): 21.4%; % Control (Observed) ([6]; Seven days after the fifth treatment, A 200 g/ha alone): 26.1%; % Control (Observed) ([6]; Six days after the third treatment, A 100 g/ha alone): 24.3%; % Control (Observed) ([6]; Six days after the third treatment, A 200 g/ha alone): 21.8% |
| CCNC(=O)NC(=O)C(C#N)=NOC [Compound C, 2-cyano-N-((ethylamino)carbonyl)-2-(methoxyimino)acetamide] | – | – | – | – | – | 2.5 | 34.6 | – | – | % Control (Observed) ([6]; Seven days after the fifth treatment, C 25 g/ha alone): 66.7%; % Control (Observed) ([6]; Seven days after the fifth treatment, C 50 g/ha alone): 59.6%; % Control (Observed) ([6]; Seven days after the fifth treatment, C 100 g/ha alone): 64.3%; % Control (Observed) ([6]; Six days after the third treatment, C 25 g/ha alone): 71.3%; % Control (Observed) ([6]; Six days after the third treatment, C 50 g/ha alone): 64.8%; % Control (Observed) ([6]; Six days after the third treatment, C 100 g/ha alone): 74.1% |
| COc1ccc(C(=CC(=O)N2CCOCC2)c2ccc(Cl)cc2)cc1OC [Compound D, (E,Z) 4-(3-(4-chlorophenyl)-3-(3,4-dimethoxyphenyl)acryloyl) morpholine] | – | – | – | – | – | – | – | 0 | 10 | % Control (Observed) ([5]; single compound 1.5 ppm): 35% |
| manganese-zinc ethylenebis(dithiocarbamate) [reference compound] | 99% and 98% | 98% and 88% | 95% and 80% | 69 | 61 | – | – | – | – | % Control by Evaluation Interval 8 weeks [1]: 87% and 62% |

Source: patent EP0753258B1 (priority 1995, dated 1997)
